Measured values: ChEMBL document CHEMBL5046289, “Targeting the S2 Subsite Enables the Structure-Based Discovery of Novel Highly Selective Factor XIa Inhibitors” (J Med Chem, 2022)
Active and inactive are the calls of the source. The rule behind the calls is not given here.

Experiments:
Coagulation factor XI [1] = biological target: T1, Coagulation factor XI (Homo sapiens, UniProt P03951); assay: Inhibition of coagulation factor XIa (unknown origin) assessed as chromogenic substrate hydrolysis using CS-21(66) as substrate incubated for 1 hr by spectrophotometer based microplate reader method
Homo sapiens [2] = species on record: Homo sapiens; assay: Selectivity index, ratio of IC50 for plasma kallikrein (unknown origin) to IC50 for coagulation factor XIa (unknown origin)
[3] = biological target: T2, Coagulation factor XII (Homo sapiens) (UniProt P00748); assay: Inhibition of coagulation factor XIIa (unknown origin) assessed as chromogenic substrate using TH5253 as substrate at 1 mM incubated for 1 hr by spectrophotometer based microplate reader method
T2 sequence (whole entry): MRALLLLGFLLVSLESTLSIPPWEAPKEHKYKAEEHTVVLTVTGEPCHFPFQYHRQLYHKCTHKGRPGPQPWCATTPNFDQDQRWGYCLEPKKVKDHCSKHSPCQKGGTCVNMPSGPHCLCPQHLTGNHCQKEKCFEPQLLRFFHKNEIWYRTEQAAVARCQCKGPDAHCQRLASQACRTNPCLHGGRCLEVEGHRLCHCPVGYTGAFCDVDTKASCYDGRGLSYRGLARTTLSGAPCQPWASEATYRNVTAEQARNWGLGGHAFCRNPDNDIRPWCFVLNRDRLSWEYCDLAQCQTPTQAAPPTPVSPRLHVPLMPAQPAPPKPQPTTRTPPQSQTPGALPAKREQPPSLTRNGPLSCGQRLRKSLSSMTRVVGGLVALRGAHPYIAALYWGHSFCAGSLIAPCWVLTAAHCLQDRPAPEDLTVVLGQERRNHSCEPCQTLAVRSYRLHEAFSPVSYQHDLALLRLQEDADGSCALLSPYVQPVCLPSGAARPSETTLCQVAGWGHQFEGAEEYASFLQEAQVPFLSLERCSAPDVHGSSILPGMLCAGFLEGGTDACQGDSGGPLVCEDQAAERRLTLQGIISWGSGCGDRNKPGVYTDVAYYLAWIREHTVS

[4] = biological target: Serine protease 1 (Homo sapiens) (UniProt P07477); assay: Inhibition of trypsin (unknown origin) assessed as chromogenic substrate using CS-11(22) as substrate at 1 mM incubated for 1 hr by spectrophotometer based microplate reader method
Prothrombin = Prothrombin (Homo sapiens, UniProt P00734); assay: Inhibition of thrombin (unknown origin) assessed as chromogenic substrate using CS-10(38) as substrate incubated for 1 hr by spectrophotometer based microplate reader method
Homo sapiens [5] = species on record: Homo sapiens; assay: Selectivity index, ratio of IC50 for coagulation factor Xa (unknown origin) to IC50 for coagulation factor XIa (unknown origin)
Homo sapiens [6] = species on record: Homo sapiens; assay: Selectivity index, ratio of IC50 for coagulation factor XIIa (unknown origin) to IC50 for coagulation factor XIa (unknown origin)
Homo sapiens [7] = species on record: Homo sapiens; assay: Selectivity index, ratio of IC50 for coagulation factor IXa (unknown origin) to IC50 for coagulation factor XIa (unknown origin)
Homo sapiens [8] = species on record: Homo sapiens; assay: Selectivity index, ratio of IC50 for trypsin (unknown origin) to IC50 for coagulation factor XIa (unknown origin)
Homo sapiens [9] = species on record: Homo sapiens; assay: Selectivity index, ratio of IC50 for thrombin (unknown origin) to IC50 for coagulation factor XIa (unknown origin)
Plasma [10] = assay: Anticoagulant activity in mouse platelet-poor plasma assessed as increase in prothrombin time at 3.8 to 210 ug/ml incubated for 3 mins by coagulometer analysis; type: functional, cell-free; conditions: dose 3.8-210 µg/ml
Plasma [11] = assay: Anticoagulant activity in mouse platelet-poor plasma assessed as increase in activated partial thromboplastin time at 22 ug/ml incubated for 3 mins by coagulometer analysis; type: functional, cell-free; conditions: dose 22.0 µg/ml
[12] = Half life in Sprague-Dawley rat at 10 mg/kg, iv after 0.083 to 24 hrs by LC-MS/MS analysis; type: ADME, organism-based; conditions: in vivo, time 0.083-24 hrs
[13] = Cmax in Sprague-Dawley rat at 10 mg/kg, iv after 0.083 to 24 hrs by LC-MS/MS analysis; type: ADME, organism-based; parameters: route intravenous, dose 10 mg/kg, time upper 24 hrs, time lower 0.083 hrs; conditions: in vivo
[14] = AUC(0 to t) in Sprague-Dawley rat at 10 mg/kg, iv after 0.083 to 24 hrs by LC-MS/MS analysis; type: ADME, organism-based; parameters: route intravenous, time upper 24 hrs, time lower 0.083 hrs, dose 10 mg/kg; conditions: in vivo
[15] = Clearance in Sprague-Dawley rat at 10 mg/kg, iv after 0.083 to 24 hrs by LC-MS/MS analysis; type: ADME, organism-based; conditions: in vivo, time 0.083-24 hrs
[16] = AUC(0 to infinity) in Sprague-Dawley rat at 10 mg/kg, iv after 0.083 to 24 hrs by LC-MS/MS analysis; type: ADME, organism-based; parameters: route intravenous, dose 10 mg/kg, time upper 24 hrs, time lower 0.083 hrs; conditions: in vivo
[17] = MRT(0 to t) in Sprague-Dawley rat at 10 mg/kg, iv after 0.083 to 24 hrs by LC-MS/MS analysis; type: ADME, organism-based; conditions: in vivo, time 0.083-24 hrs
Mus musculus = assay: Antithrombotic activity against FeCl3-induced carotid artery thrombosis C57BL/6J mouse model assessed as prolongation of occlusion time pretreated at 19.5 mg/kg, iv tail vein injection for 10 mins followed by FeCl3 addition for 3 mins and measured after 30 mins; type: functional, organism-based; conditions: time 43.0 min
[18] = Acute toxicity in ICR mouse assessed as histological change in spleen at 50 to 100 mg/kg, iv as single dose for 14 days by H and E staining method; type: organism-based; conditions: in vivo, 336 h, dose 50-100 mg/kg, time 14 day
[19] = Acute toxicity in ICR mouse assessed as histological change in lung at 50 to 100 mg/kg, iv as single dose for 14 days by H and E staining method; type: organism-based; conditions: in vivo, 336 h, dose 50-100 mg/kg, time 14 day
[20] = Acute toxicity in ICR mouse assessed as histological change in kidney at 50 to 100 mg/kg, iv as single dose for 14 days by H and E staining method; type: organism-based; conditions: in vivo, 336 h, dose 50-100 mg/kg, time 14 day
[21] = Acute toxicity in ICR mouse assessed as histological change in heart at 50 to 100 mg/kg, iv as single dose for 14 days by H and E staining method; type: organism-based; conditions: in vivo, 336 h, dose 50-100 mg/kg, time 14 day
[22] = Acute toxicity in ICR mouse assessed as histological change in liver at 50 to 100 mg/kg, iv as single dose for 14 days by H and E staining method; type: organism-based; conditions: in vivo, 336 h, dose 50-100 mg/kg, time 14 day
[23] = Acute toxicity in ICR male mouse assessed as effect on weight loss at 50 to 100 mg/kg, iv as single dose for 14 days; type: organism-based; conditions: in vivo, 336 h, dose 50-100 mg/kg, time 14 day
[24] = Acute toxicity in ICR female mouse assessed as effect on weight loss at 50 to 100 mg/kg, iv as single dose for 14 days; type: organism-based; conditions: in vivo, 336 h, dose 50-100 mg/kg, time 14 day
[25] = Toxicity in C57BL/6J mouse assessed as bleeding risk at 19.5 to 39 mg/kg, iv measured after 15 mins by tail transection assay; type: organism-based; conditions: in vivo, 0.25 h, dose 19.5-39 mg/kg
[26] = Toxicity in C57BL/6J mouse assessed as bleeding risk at 35 mg/kg, iv measured after 15 mins by tail transection assay; type: organism-based; conditions: in vivo, 0.25 h
[27] = Toxicity in C57BL/6J mouse assessed as bleeding risk at 60 to 100 mg/kg, iv measured after 15 mins by tail transection assay; type: organism-based; conditions: in vivo, 0.25 h, dose 60-100 mg/kg
Coagulation factor XI [28] = biological target: T1, Coagulation factor XI; conditions: dose 50.0 nM, time 1.0 hrs

T1 sequence (P03951 19-387 limits assumed): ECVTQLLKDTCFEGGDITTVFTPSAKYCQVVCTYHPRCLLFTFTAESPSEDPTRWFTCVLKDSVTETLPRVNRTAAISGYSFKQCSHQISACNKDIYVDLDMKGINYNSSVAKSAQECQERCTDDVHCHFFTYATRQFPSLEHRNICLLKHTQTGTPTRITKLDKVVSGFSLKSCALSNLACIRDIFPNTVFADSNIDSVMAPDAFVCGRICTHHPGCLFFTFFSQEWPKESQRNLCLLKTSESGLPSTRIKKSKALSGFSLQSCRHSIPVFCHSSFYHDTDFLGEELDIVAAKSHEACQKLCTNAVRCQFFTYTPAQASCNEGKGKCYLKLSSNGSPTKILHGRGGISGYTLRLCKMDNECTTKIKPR
T1 sequence (P03951 388-625 limits assumed): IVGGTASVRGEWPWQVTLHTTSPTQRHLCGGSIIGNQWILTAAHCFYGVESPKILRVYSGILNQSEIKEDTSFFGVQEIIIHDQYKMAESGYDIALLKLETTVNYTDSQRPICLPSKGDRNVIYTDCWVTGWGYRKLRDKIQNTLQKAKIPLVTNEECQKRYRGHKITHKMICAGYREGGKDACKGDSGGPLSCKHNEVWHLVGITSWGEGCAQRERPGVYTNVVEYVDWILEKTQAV
Sequence of Serine protease 1 (Homo sapiens) (P07477 whole entry): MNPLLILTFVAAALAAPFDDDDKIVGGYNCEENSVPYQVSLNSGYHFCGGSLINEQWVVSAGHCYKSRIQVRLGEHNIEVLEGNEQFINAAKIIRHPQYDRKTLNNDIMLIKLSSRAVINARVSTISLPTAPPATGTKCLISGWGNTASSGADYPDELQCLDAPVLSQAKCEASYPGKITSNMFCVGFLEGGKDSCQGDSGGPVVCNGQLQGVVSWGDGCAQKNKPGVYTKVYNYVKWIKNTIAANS

SMILES: O=C(/C=C/c1cc(Cl)ccc1-n1cnnn1)N[C@@H](CC(=O)N1CCN(c2ccccc2)CC1)C(=O)Nc1ccc(C(=O)O)cc1
- IC50 (Coagulation factor XI [1]): 0.0142 µM
- Ratio IC50 (Homo sapiens [2]): 1960
- inhibition [3]: inactive
- inhibition [4]: inactive
- IC50 (Prothrombin): 460 µM
- Ratio IC50 (Homo sapiens [5]): > 5000
- Ratio IC50 (Homo sapiens [6]): > 5000
- Ratio IC50 (Homo sapiens [7]): > 5000
- Ratio IC50 (Homo sapiens [8]): > 5000
- Ratio IC50 (Homo sapiens [9]): > 5000
- Activity (Plasma [10]): inactive
- Activity (Plasma [11]): Active
- half-life [12]: 75.6 min
- Cmax [13]: 57 µg/mL
- AUC(0-t) [14]: 18300 ng·h/mL
- clearance [15]: 9.22 mL/min/kg
- AUC(0-inf) [16]: 18400 ng·h/mL
- MRT last [17]: 19.2 min
- Activity (Mus musculus): Active
- Activity [18]: Non-Toxic
- Activity [19]: Non-Toxic
- Activity [20]: Non-Toxic
- Activity [21]: Non-Toxic
- Activity [22]: Non-Toxic
- Activity [23]: Non-Toxic
- Activity [24]: Non-Toxic
- Activity [25]: Non-Toxic
- Activity [26]: Non-Toxic
- Activity [27]: Non-Toxic
- inhibition (Coagulation factor XI [28]): 59.4%
